# Experimental data from patent publication US11679103B2, “Multi-targeting agents for Alzheimer's disease therapy” (The Regents of the University of California, priority 2018, dated 2023).
# Legend:
# Aβ amyloid plaques = experiment: [3H]PIB competition autoradiography in postmortem human AD frontal cortex slices; format: binding; conditions: for effect on [3H]PIB binding: 1 μM; for GM/WM ratio of [3H]PIB binding: human AD frontal cortex; for displacement of [3H]PIB (words, discussion): FIG. 10 and 11; for effect on [3H]PIB binding level: GM and WM
# Procedure: Post-mortem human AD frontal cortex sections (10 μm thick; human brain tissue obtained from Banner Sun Health Research Institute, Sun City, Ariz.) were preincubated in 10% alcohol PBS buffer for 10 minutes. The brain sections were placed in a glass chamber and incubated with [^3H]PIB (2 μCi/cc) in 10% alcohol PBS buffer, pH 7.4 at 37° C. for 1 h. The slices were then washed with cold 10% alcohol PBS buffer (2×3 mins), cold deionized water 1 min, respectively. The brain sections were air dried, exposed overnight on a phosphor film, and then placed on the Phosphor Autoradiographic Imaging System/Cyclone Storage Phosphor System (Packard Instruments Co). Regions of interest (ROIs) were drawn on the slices and the extent of binding of [^3H]PIB was measured with DLU/mm^2 using the OptiQuant acquisition and analysis program (Packard Instruments Co).
# The Aβ plaque-α4β2* nAChR multi-agent was tested for binding to Aβ amyloid plaques in human postmortem AD brain frontal cortex slices labeled with [^3H]PIB (75-90 year olds, Braak score V-VI).
# α4β2* nAChRs = α4β2* nAChRs (Rattus norvegicus, UniProt P09483+P12390); conditions: rat brain slices; for displacement of [3H]cytisine: 100 nM
# Chain of α4β2* nAChRs (P09483 31-630): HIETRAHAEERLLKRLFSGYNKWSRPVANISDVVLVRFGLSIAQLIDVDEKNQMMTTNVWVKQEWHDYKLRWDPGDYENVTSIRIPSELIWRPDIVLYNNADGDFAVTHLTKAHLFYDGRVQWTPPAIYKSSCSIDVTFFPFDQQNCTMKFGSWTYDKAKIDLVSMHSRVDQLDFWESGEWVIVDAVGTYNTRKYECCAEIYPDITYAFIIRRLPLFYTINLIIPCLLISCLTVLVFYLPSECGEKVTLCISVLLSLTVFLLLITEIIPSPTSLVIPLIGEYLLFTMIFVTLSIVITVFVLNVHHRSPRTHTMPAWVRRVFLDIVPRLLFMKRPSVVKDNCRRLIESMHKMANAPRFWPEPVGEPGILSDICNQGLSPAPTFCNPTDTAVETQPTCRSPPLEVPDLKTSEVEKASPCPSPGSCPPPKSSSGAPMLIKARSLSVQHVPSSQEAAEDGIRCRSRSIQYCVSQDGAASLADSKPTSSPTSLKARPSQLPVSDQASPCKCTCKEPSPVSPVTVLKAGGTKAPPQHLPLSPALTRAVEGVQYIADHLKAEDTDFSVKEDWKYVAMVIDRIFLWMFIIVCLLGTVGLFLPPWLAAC
# Chain of α4β2* nAChRs (P12390 25-500): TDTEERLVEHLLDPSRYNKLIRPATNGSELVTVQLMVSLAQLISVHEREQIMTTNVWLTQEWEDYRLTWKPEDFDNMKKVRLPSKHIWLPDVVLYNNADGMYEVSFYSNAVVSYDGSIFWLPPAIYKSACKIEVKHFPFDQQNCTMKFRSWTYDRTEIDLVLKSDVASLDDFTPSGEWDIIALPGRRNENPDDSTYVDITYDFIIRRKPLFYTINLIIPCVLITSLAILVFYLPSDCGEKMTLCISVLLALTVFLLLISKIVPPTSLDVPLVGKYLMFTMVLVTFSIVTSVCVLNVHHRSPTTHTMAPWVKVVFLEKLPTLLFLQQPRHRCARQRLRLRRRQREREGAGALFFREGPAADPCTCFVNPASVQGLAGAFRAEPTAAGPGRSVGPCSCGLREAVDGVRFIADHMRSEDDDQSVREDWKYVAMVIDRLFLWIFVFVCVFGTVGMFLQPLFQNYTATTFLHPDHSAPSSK
# Procedure: In Vitro Studies: Ex vivo rat brain slices were prepared at 10 μm thick using a Leica 1850 cryotome and used for [^3H]cytisine binding. […] The apposed phosphor screens were read and analyzed by OptiQuant acquisition and analysis program of the Cyclone Storage Phosphor System (Packard Instruments Co., Boston, Mass.). Region-of-interest of same size were drawn and analyzed on brain regions using OptiQuant software and binding of [^3H]cytisine measured in Digital Light Units/mm^2 (DLU/mm^2). Data was analyzed using following procedure: (a) the non-specific binding of [^3H]cytisine was subtracted for all samples; (b) the specific binding was normalized to 100% (no competitive ligand) and (c) the binding isotherms were fit to the Hill equation (KELL BioSoft software (v 6), Cambridge, U.K.).
# Nicotinic receptor binding: The Aβ plaque-α4β2* nAChR multi-agents were tested for their affinity to the α4β2* nAChRs using rat brain slices labeled with [^3H]cytisine. […] Three brain regions analyzed included thalamus, frontal cortex and subiculum.
# Amyloid β = molecular target: T1, Amyloid β (Homo sapiens, UniProt P05067); conditions: cited from earlier work
# T1 construct: host or cells: AD patients (clinical trials)
# [1] = 1 μM test agent, control GM/WM approx. 2
# [2] = 10 μM test agent, control GM/WM approx. 3
Compound,effect on [3H]PIB binding (Aβ amyloid plaques),GM/WM ratio of [3H]PIB binding (Aβ amyloid plaques; [1]),GM/WM ratio of [3H]PIB binding (Aβ amyloid plaques; [2]),"displacement of [3H]PIB (words, discussion) (Aβ amyloid plaques; human frontal cortex)",effect on [3H]PIB binding level (Aβ amyloid plaques; 10 μM),further results
5-(3-methoxy-4-propyloxycinnamate)-3-(2-(S)-pyrrolidinylmethoxy)pyridine [GKS-007],some inhibitory effect,no significant GM/WM ratio reduction,,,,displacement of [3H]cytisine (α4β2* nAChRs): Displacement of significant amounts; affinity at α4β2* nAChR sites (α4β2* nAChRs): high affinity
5-(3′-Ethyl 3-methoxy-4-propyloxycinnamate)-3-(2-(S)-pyrrolidinylmethoxy)pyridine [GKS-006],,,,,,displacement of [3H]cytisine (α4β2* nAChRs): Displacement of significant amounts; affinity at α4β2* nAChR sites (α4β2* nAChRs): high affinity
"COc1cc(/C=C/C(=O)CC(=O)/C=C/c2ccc(O)c(OC)c2)ccc1O [Curcumin, curcumin]",,,1.5,significant displacement effect,,"reduction of [3H]PIB binding (Aβ amyloid plaques; 10 μM, human frontal cortex): 50%"
"COc1cc(/C=C/C(=O)O)ccc1O [FA, ferulic acid]",did not significantly affect the binding,approx. 2,2,little displacement,higher levels,
"CNc1ccc(N=Nc2ccc(N(C)C)cc2)cc1 [TAZA, N,N,N′-trimethyl-4,4′-azodianiline]",significant displacement,1.3,,greater than observed by curcumin,,
Fexofenadine curcuminate [CUR-FEX],,,1.96,largest displacement,lower binding,"reduction of GM/WM ratio of [3H]PIB (Aβ amyloid plaques; human AD frontal cortex (FIG. 10, 10 μM)): 35%"
Fexofenadine-(3-methoxy-4-(1′-aminobutyryloxy)cinnamic acid [KD003],,,2.4,,higher levels,
Solanezumab: anti-amyloid monoclonal antibody,,,,,,"Aβ plaque load measured by PET imaging, before vs after antibody treatment (Amyloid β; large clinical trials): did not change significantly; Outcome (clinical) (Amyloid β; mild to moderate AD subjects): Did not improve"
